Each block holds one molecule with its values, some of them ahead of it.
Tested on: CRE reporter in GBCRC6
Experiment: Constitutive activity of GPCR, Method 1 (GBCRC6 host, Renilla reniformis luciferase, induction ratio with 17β-estradiol)
Assay type: cell-based, human
Settings: for Constitutive Activity (induction ratio): Method 1, GBCRC6 host, activity with 17β-estradiol divided by activity without, control plasmid about 1; for Constitutive Activity: method 1 of (2) of Example 22, induction ratio of reporter activity with 17β-estradiol; for induction ratio (constitutive activity): method of (2) of Example 22 utilizing GBCRC6 as a host
Description: After the incubation, coelenterazine h (Molecular Proves) (final concentration 250 nmol/L) was added to measure the activity of Renilla reniformis luciferase. For the activity measurement, a Wallac 1420 ARVOsx Multilabel Counter (manufactured by Wallac Berthold Japan) or a VIM camera (Argus-50/2D Luminometer/MP; manufactured by Hamamatsu Photonics) was used.
In each method, the induction ratio of the cells transfected with the control plasmid was about 1. It is judged that the higher the induction ratio of the cells to which a GPCR expression plasmid was transfected, the stronger the constitutive activity of the GPCR.

Molecule: GPR 92
Constitutive Activity (induction ratio): 11-fold

Molecule: GPR 35
Constitutive Activity (induction ratio): 25-fold

Molecule: GPR 4
Constitutive Activity (induction ratio): 40-fold

Molecule: OGR1
Constitutive Activity (induction ratio): 3.6-fold

Molecule: GPR 30
Constitutive Activity (induction ratio): 27-fold

Molecule: OGR1S221N/D118A: OGR1S221N mutant GPCR with 118th aspartic acid substituted with alanine; SEQ ID NO: 189
Constitutive Activity: 56-fold

Molecule: GPR 62
Constitutive Activity (induction ratio): 12-fold

B3: G2A (protein, UniProt Q9UNW8 1-380, looked up)
Probable G-protein coupled …: MCPMLLKNGYNGNATPVTTTAPWASLGLSAKTCNNVSFEESRIVLVVVYSAVCTLGVPANCLTAWLALLQVLQGNVLAVYLLCLALCELLYTGTLPLWVIYIRNQHRWTLGLLACKVTAYIFFCNIYVSILFLCCISCDRFVAVVYALESRGRRRRRTAILISACIFILVGIVHYPVFQTEDKETCFDMLQMDSRIAGYYYARFTVGFAIPLSIIAFTNHRIFRSIKQSMGLSAAQKAKVKHSAIAVVVIFLVCFAPYHLVLLVKAAAFSYYRGDRNAMCGLEERLYTASVVFLCLSTVNGVADPIIYVLATDHSRQEVSRIHKGWKEWSMKTDVTRLTHSRDTEELQSPVALADHYTFSRPVHPPGSPCPAKRLIEESC
Constitutive Activity (induction ratio): 20-fold

B4: PGMO334E135F: mutant where the 135th glutamic acid of the PGMO334 polypeptide was substituted with phenylalanine; SEQ ID NO: 193 (protein)
chain: MSPECARAAGDAPLRSLEQANRTRFPFFSDVKGDHRLVLAAVETTVLVLIFAVSLLGNVCALVLVARRRRRGATACLVLNLFCADLLFISAIPLVLAVRWTEAWLLGPVACHLLFYVMTLSGSVTILTLAAVSLFRMVCIVHLQRGVRGPGRRARAVLLALIWGYSAVAALPLCVFFRVVPQRLPGADQEISICTLIWPTIPGEISWDVSFVTLNFLVPGLVIVISYSKILQITKASRKRLTVSLAYSESHQIRVSQQDFRLFRTLFLLMVSFFIMWSPIIITILLILIQNFKQDLVIWPSLFFWVVAFTFANSALNPILYNMTLCRNEWKKIFCCFWFPEKGAILTDTSVKRNDLSIISG
modifications: PGMO334E135F
induction ratio (constitutive activity): about 3 fold

B5: PGMO334E135A: mutant where the 135th glutamic acid of PGMO334 polypeptide was substituted with alanine; SEQ ID NO: 195 (protein)
chain: MSPECARAAGDAPLRSLEQANRTRFPFFSDVKGDHRLVLAAVETTVLVLIFAVSLLGNVCALVLVARRRRRGATACLVLNLFCADLLFISAIPLVLAVRWTEAWLLGPVACHLLFYVMTLSGSVTILTLAAVSLARMVCIVHLQRGVRGPGRRARAVLLALIWGYSAVAALPLCVFFRVVPQRLPGADQEISICTLIWPTIPGEISWDVSFVTLNFLVPGLVIVISYSKILQITKASRKRLTVSLAYSESHQIRVSQQDFRLFRTLFLLMVSFFIMWSPIIITILLILIQNFKQDLVIWPSLFFWVVAFTFANSALNPILYNMTLCRNEWKKIFCCFWFPEKGAILTDTSVKRNDLSIISG
modifications: PGMO334E135A
induction ratio (constitutive activity): about 14 fold

B6: PGMO334D259S: mutant where the 259th aspartic acid of PGMO334 polypeptide was substituted with serine; SEQ ID NO: 196 (protein)
chain: MSPECARAAGDAPLRSLEQANRTRFPFFSDVKGDHRLVLAAVETTVLVLIFAVSLLGNVCALVLVARRRRRGATACLVLNLFCADLLFISAIPLVLAVRWTEAWLLGPVACHLLFYVMTLSGSVTILTLAAVSLERMVCIVHLQRGVRGPGRRARAVLLALIWGYSAVAALPLCVFFRVVPQRLPGADQEISICTLIWPTIPGEISWDVSFVTLNFLVPGLVIVISYSKILQITKASRKRLTVSLAYSESHQIRVSQQSFRLFRTLFLLMVSFFIMWSPIIITILLILIQNFKQDLVIWPSLFFWVVAFTFANSALNPILYNMTLCRNEWKKIFCCFWFPEKGAILTDTSVKRNDLSIISG
modifications: PGMO334D259S
induction ratio (constitutive activity): about 5 fold

B7: PGMO334E135Q: mutant where the 135th glutamic acid of PGMO334 polypeptide was substituted with glutamine; SEQ ID NO: 194 (protein)
chain: MSPECARAAGDAPLRSLEQANRTRFPFFSDVKGDHRLVLAAVETTVLVLIFAVSLLGNVCALVLVARRRRRGATACLVLNLFCADLLFISAIPLVLAVRWTEAWLLGPVACHLLFYVMTLSGSVTILTLAAVSLQRMVCIVHLQRGVRGPGRRARAVLLALIWGYSAVAALPLCVFFRVVPQRLPGADQEISICTLIWPTIPGEISWDVSFVTLNFLVPGLVIVISYSKILQITKASRKRLTVSLAYSESHQIRVSQQDFRLFRTLFLLMVSFFIMWSPIIITILLILIQNFKQDLVIWPSLFFWVVAFTFANSALNPILYNMTLCRNEWKKIFCCFWFPEKGAILTDTSVKRNDLSIISG
modifications: PGMO334E135Q
induction ratio (constitutive activity): about 3 fold

B10: GPR35D113A: GPR35 mutant GPCR, 113th aspartic acid substituted with alanine; SEQ ID NO: 191 (protein)
chain: MNGTYNTCGSSDLTWPPAIKLGFYAYLGVLLVLGLLLNSLALWVFCCRMQQWTETRIYMTNLAVADLCLLCTLPFVLHSLRDTSDTPLCQLSQGIYLTNRYMSISLVTAIAVARYVAVRHPLRARGLRSPRQAAAVCAVLWVLVIGSLVARWLLGIQEGGFCFRSTRHNFNSMRFPLLGFYLPLAVVVFCSLKVVTALAQRPPTDVGQAEATRKAARMVWANLLVFVVCFLPLHVGLTVRLAVGWNACALLETIRRALYITSKLSDANCCLDAICYYYMAKEFQEASALAVAPRAKAHKSQDSLCVTLA
modifications: GPR35D113A
Constitutive Activity: 97-fold

Results, then the molecule that gave them:

Constitutive Activity (induction ratio): 12.7-fold
Molecule: OGR1S221N

Constitutive Activity (induction ratio): 15-fold
Molecule: GPR 88

Constitutive Activity (induction ratio): 63-fold
Molecule: GPR 6

Constitutive Activity (induction ratio): 20-fold
Molecule: GPCR 25

Constitutive Activity (induction ratio): 12-fold
Molecule: GPR 61

induction ratio (constitutive activity): about 2 fold
B1: GPR43R217P: mutant where the 217th arginine of GPR43 polypeptide was substituted with proline; SEQ ID NO: 197 (protein)
chain: MLPDWKSSLILMAYIIIFLTGLPANLLALRAFVGRIRQPQPAPVHILLLSLTLADLLLLLLLPFKIIEAASNFRWYLPKVVCALTSFGFYSSIYCSTWLLAGISIERYLGVAFPVQYKLSRRPLYGVIAALVAWVMSFGHCTIVIIVQYLNTTEQVRSGNEITCYENFTDNQLDVVLPVRLELCLVLFFIPMAVTIFCYWRFVWIMLSQPLVGAQRPRRAVGLAVVTLLNFLVCFGPYNVSHLVGYHQRKSPWWRSIAVVFSSLNASLDPLLFYFSSSVVRRAFGRGLQVLRNQGSSLLGRRGKDTAEGTNEDRGVGQGEGMPSSDFTTE
modifications: GPR43R217P

induction ratio (constitutive activity): about 17 fold
B2: GPR43R217PE106D: GPR43R217P mutant where the 106th glutamic acid was substituted with aspartic acid; SEQ ID NO: 198 (protein)
chain: MLPDWKSSLILMAYIIIFLTGLPANLLALRAFVGRIRQPQPAPVHILLLSLTLADLLLLLLLPFKIIEAASNFRWYLPKVVCALTSFGFYSSIYCSTWLLAGISIDRYLGVAFPVQYKLSRRPLYGVIAALVAWVMSFGHCTIVIIVQYLNTTEQVRSGNEITCYENFTDNQLDVVLPVRLELCLVLFFIPMAVTIFCYWRFVWIMLSQPLVGAQRPRRAVGLAVVTLLNFLVCFGPYNVSHLVGYHQRKSPWWRSIAVVFSSLNASLDPLLFYFSSSVVRRAFGRGLQVLRNQGSSLLGRRGKDTAEGTNEDRGVGQGEGMPSSDFTTE
modifications: GPR43R217P/E106D

Constitutive Activity: 32-fold
B8: RE2D124A: RE2 mutant GPCR, 124th aspartic acid substituted with alanine; SEQ ID NO: 190 (protein)
chain: MSLNSSLSCRKELSNLTEEEGGEGGVIITQFIAIIVITIFVCLGNLVIVVTLYKKSYLLTLSNKFVFSLTLSNFLLSVLVLPFVVTSSIRREWIFGVVWCNFSALLYLLISSASMLTLGVIAIARYYAVLYPMVYPMKITGNRAVMALVYIWLHSLIGCLPPLFGWSSVEFDEFKWMCVAAWHREPGYTAFWQIWCALFPFLVMLVCYGFIFRVARVKARKVHCGTVVIVEEDAQRTGRKNSSTSTSSSGSRRNAFQGVVYSANQCKALITILVVLGAFMVTWGPYMVVIASEALWGKSSVSPSLETWATWLSFASAVCHPLIYGLWNKTVRKELLGMCFGDRYYREPFVQRQRTSRLFSISNRITDLGLSPHLTALMAGGQPLGHSSSTGDTGFSCSQDSGNLRAL
modifications: RE2D124A

Constitutive Activity: 35-fold
B9: GPCR25D111A: GPCR25 mutant GPCR, 111th aspartic acid substituted with alanine; SEQ ID NO: 192 (protein)
chain: MNSTCIEEQHDLDHYLFPIVYIFVIIVSIPANIGSLCVSFLQPKKESELGIYLFSLSLSDLLYALTLPLWIDYTWNKDNWTFSPALCKGSAFLMYMKFYSSTAFLTCIAVARYLAVVYPLKFFFLRTRRIALMVSLSIWILETIFNAVMLWEDETVVEYCDAEKSNFTLCYDKYPLEKWQINLNLFRTCTGYAIPLVTILICNRKVYQAVRHNKATENKEKKRIIKLLVSITVTFVLCFTPFHVMLLIRCILEHAVNFEDHSNSGKRTYTMYRITVALTSLNCVADPILYCFVTETGRYDMWNILKFCTGRCNTSQRQRKRILSVSTKDTMELEVLE
modifications: GPCR25D111A

From patent US20100167397A1, “ENDOCRINE CELL LINES AND METHOD OF USING THE SAME” (KYOWA HAKKO KOGYO CO., LTD., priority 2002, published 2010)
